Test results: patent US12173018B2, “Penicillin-binding protein inhibitors” (priority 2018, dated 2024)
≈ marks a conversion by molar mass, not a printed value. Read-outs that look alike come from different tables or passages of the source.

What was measured:
[1] = test system: engineered strain of Escherichia coli harboring CTX-M15; assay: microbe, parasite or virus in culture; type: cell-based; details: Escherichia coli, read-out: Microbiological Activity (MIC in mg/L), E. coli DH5α/pLBII-CTX-M15, engineered strain producing CTX-M15
E. coli PBP1b = E. coli PBP1b (Escherichia coli (strain K12), UniProt P02919); assay: Radioligand competition binding assay with 14C-labeled boronic acid probe, PBP1b
From the text: To determine the ability of boronic acid-based test PBP inhibitors to bind Penicillin Binding Proteins (PBPs), a radio-labelled boronic acid PBP inhibitor
[drawing 751] was used in competition binding assays to determine boronic acid PBP inhibitor binding to PBP1a or PBP1b from Escherichia coli. PBP1a and PBP1b were purified as described previously (Bertsche, U.; et al., J. Biol. Chem. 2005, 280 (45), 38096-38101; Born, P.; et al., J. Biol. Chem. 2006. 281 (37), 26985-26993). To establish assay conditions for competition binding, an enzyme titration/saturation binding experiment was performed. Saturation binding was performed in a buffer comprised of 20 mM Tris (pH 7.5), 500 mM NaCl and 0.1% (v/v) TritonX-100, with PBP1a/PBP1b at a final concentration of 0.1 μM and Compound A at final concentrations ranging from 0-100 μM. Mixtures were incubated for 60 minutes, then applied to Zeba Spin Desalting columns or plates (ThermoFisher Scientific) and centrifuged at 1000-1500×g for 2 minutes. The flow through, containing PBP bound with Compound A, was recovered and 100 μL mixed with 5 mL of UltimaGold liquid scintillation cocktail (Perkin Elmer), and the radioactivity counted using a Beckman Coulter LS 6500 Multipurpose scintillation counter. PBP binding of Compound A approached saturation at 20 μM of ^14C-labeled probe. The competition binding assay was validated using the beta-lactam ampicillin, with Compound A at a final concentration of 20 μM, PBP1a/PBP1b at a final concentration of 0.1 μM. PBP1a/PBP1b was incubated with ampicillin in a 96-well microplate for 60 minutes, then Compound A was added and the mixtures incubated for an additional 60 minutes. The mixtures were then applied to Zeba Spin desalting plates and centrifuged at 1000×g for 2 minutes. The flow through was recovered and 100 μl mixed with 5 ml of UltimaGold liquid scintillation cocktail and the radioactivity counted. […] Binding assays with boronic acid PBP inhibitors were performed in an identical fashion. The potency of boronic acid PBP inhibitors was reported as the EC50 value.

E. coli PBP3 = E. coli PBP3 (Escherichia coli (strain K12), UniProt P0AD68); assay: E. coli PBP3 Bocillin-FL fluorescence polarization competition binding assay
How it was run: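 This was a fluorescence polarization competition with fluorescent penicillin Bocillin-FL (0.1 μM final), read at 490/520 nm for 60 min immediately after its addition. The buffer was Hepes pH 8.0 with 300 mM NaCl and 5% glycerol, containing 1.5 μM PBP and test inhibitor up to 1000 μM. Potency is expressed as EC50 for reducing probe binding.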

E. coli AG100 = assay: Broth microdilution MIC, E. coli AG100 (wild-type parent); type: cell-based; details: Escherichia coli; wild-type parent E. coli AG100, broth microdilution; read-out: MIC E. coli AG100
How it was run: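 Starting inoculum of 5×10^5 CFU/mL, from colonies grown 3-5 h in Mueller-Hinton broth with divalent cations, added to two-fold compound dilution series.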

E. coli ATCC 25922 = assay: Broth microdilution MIC, E. coli ATCC 25922; type: cell-based; details: Escherichia coli, ATCC25922; E. coli ATCC 25922, broth microdilution; read-out: MIC E. coli 25922
How it was run: (§1)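 CLSI broth microdilution in cation-supplemented Mueller-Hinton broth; 2-fold compound dilutions inoculated at 5×10^5 CFU/mL from a 3-5 h log-phase culture. Plates incubated 16-20 hours at 37° C; MIC read visually as lowest concentration with no growth.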

K. pneumoniae UMM = assay: microbe, parasite or virus in culture; type: cell-based; details: Klebsiella pneumoniae; K. pneumoniae UMM producing SHV-5 and KPC-2; read-out: MIC K. pneumoniae UMM
How it was run: as §1

E. coli AG100A = assay: microbe, parasite or virus in culture; type: cell-based; details: Escherichia coli, read-out: MIC E. coli AG100A
How it was run: as §1

E. coli 901C = assay: microbe, parasite or virus in culture; type: cell-based; details: Escherichia coli; hyper-permeable E. coli 901C, broth microdilution; read-out: MIC E. coli 901C
How it was run: as §1

E. coli D22 = assay: microbe, parasite or virus in culture; type: cell-based; details: Escherichia coli; hyper-permeable E. coli D22, broth microdilution; read-out: MIC E. coli D22
How it was run: as §1

K. pneumoniae SI-117 = assay: microbe, parasite or virus in culture; type: cell-based; details: Klebsiella pneumoniae, SI117, read-out: MIC K. pneumoniae SI-117
How it was run: as §1

K. pneumoniae 848844 = assay: microbe, parasite or virus in culture; type: cell-based, Klebsiella pneumoniae; details: Klebsiella pneumoniae; K. pneumoniae 848844 producing SHV-11 and KPC-2; read-out: MIC K. pneumoniae 848844
How it was run: as §1

[2] = fluorescence polarization competition binding with Bocillin-FL, read-out: E. coli K12 PBP3 Potency

E. coli PBP1b, sequence (P02919 whole entry): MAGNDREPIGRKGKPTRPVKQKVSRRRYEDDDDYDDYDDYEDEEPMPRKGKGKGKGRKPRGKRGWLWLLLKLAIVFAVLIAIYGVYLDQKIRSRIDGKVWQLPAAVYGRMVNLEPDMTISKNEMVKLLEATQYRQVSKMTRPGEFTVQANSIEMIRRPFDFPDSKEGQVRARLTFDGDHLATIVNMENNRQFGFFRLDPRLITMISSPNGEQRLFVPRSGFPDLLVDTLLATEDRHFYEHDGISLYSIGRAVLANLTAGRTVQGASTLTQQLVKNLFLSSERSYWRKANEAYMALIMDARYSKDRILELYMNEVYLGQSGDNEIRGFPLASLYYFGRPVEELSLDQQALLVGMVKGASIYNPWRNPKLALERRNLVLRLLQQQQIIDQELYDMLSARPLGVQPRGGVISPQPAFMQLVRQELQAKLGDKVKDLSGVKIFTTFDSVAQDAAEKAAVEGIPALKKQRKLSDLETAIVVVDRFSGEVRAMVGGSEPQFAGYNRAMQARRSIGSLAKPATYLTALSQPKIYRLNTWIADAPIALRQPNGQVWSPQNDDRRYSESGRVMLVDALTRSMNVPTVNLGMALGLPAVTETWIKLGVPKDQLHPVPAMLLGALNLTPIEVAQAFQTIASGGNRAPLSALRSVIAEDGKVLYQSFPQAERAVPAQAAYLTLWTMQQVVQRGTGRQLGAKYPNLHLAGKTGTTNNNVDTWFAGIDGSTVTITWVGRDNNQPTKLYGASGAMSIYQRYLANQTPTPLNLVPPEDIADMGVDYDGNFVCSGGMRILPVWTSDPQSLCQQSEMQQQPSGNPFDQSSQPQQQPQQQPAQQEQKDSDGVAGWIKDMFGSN
E. coli PBP3, sequence (P0AD68 whole entry): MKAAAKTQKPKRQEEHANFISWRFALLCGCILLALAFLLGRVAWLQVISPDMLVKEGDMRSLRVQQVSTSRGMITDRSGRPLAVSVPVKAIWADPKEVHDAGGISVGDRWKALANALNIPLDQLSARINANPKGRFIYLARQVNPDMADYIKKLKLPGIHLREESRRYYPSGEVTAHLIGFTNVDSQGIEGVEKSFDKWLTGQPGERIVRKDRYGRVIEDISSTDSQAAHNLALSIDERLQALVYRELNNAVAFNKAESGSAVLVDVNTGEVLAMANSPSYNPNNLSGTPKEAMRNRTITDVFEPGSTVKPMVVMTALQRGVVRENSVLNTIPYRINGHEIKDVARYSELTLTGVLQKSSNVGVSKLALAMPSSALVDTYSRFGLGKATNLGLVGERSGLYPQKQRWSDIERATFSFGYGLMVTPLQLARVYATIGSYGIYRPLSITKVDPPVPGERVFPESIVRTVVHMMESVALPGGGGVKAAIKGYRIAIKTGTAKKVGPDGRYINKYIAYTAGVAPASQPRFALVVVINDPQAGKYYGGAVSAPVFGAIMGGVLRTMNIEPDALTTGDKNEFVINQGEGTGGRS

CCN1CCN(C(=O)NC(C(=O)N[C@H]2Cc3cccc(C(=O)O)c3OB2O)c2ccc(O)cc2Cl)C(=O)C1=O (stereo partly drawn) [Example 88, (3R)-3-(2-(2-chloro-4-hydroxyphenyl)-2-(4-ethyl-2,3-dioxopiperazine-1-carboxamido)acetamido)-2-hydroxy-3,4-dihydro-2H-benzo[e][1,2]oxaborinine-8-carboxylic acid]
MIC [1]: 128 to 256 mg/L (≈ 229 to 458 µM) | EC50 (E. coli PBP1b): < 10 µM | EC50 (E. coli PBP3; [2]): < 30 µM

CCN1CCN(C(=O)N[C@@H](C(=O)N[C@H]2Cc3cccc(C(=O)O)c3OB2O)C2CCN(C(=N)N)CC2)C(=O)C1=O [Example 91, (R)-3-((R)-2-(1-carbamimidoylpiperidin-4-yl)-2-(4-ethyl-2,3-dioxopiperazine-1-carboxamido)acetamido)-2-hydroxy-3,4-dihydro-2H-benzo[e][1,2]oxaborinine-8-carboxylic acid]
MIC [1]: 128 to 256 mg/L (≈ 230 to 459 µM) | EC50 (E. coli PBP1b): < 10 µM | EC50 (E. coli PBP3): > 500 µM

CCN1CCN(C(=O)N[C@H](C(=O)N[C@H]2Cc3cccc(C(=O)O)c3OB2O)C2CCN(C(=N)N)CC2)C(=O)C1=O [Example 92, (R)-3-((S)-2-(1-carbamimidoylpiperidin-4-yl)-2-(4-ethyl-2,3-dioxopiperazine-1-carboxamido)acetamido)-2-hydroxy-3,4-dihydro-2H-benzo[e][1,2]oxaborinine-8-carboxylic acid]
MIC [1]: 128 to 256 mg/L (≈ 230 to 459 µM) | EC50 (E. coli PBP1b): < 10 µM | EC50 (E. coli PBP3): > 500 µM

CCN1CCN(C(=O)NC(C(=O)N[C@H]2Cc3cccc(C(=O)O)c3OB2O)c2cccnc2)C(=O)C1=O (stereo partly drawn) [Example 105, (3R)-3-(2-(4-ethyl-2,3-dioxopiperazine-1-carboxamido)-2-(pyridin-3-yl)acetamido)-2-hydroxy-3,4-dihydro-2H-benzo[e][1,2]oxaborinine-8-carboxylic acid]
MIC (E. coli AG100): 32 to 64 µg/mL | MIC [1]: 32 to 64 mg/L (≈ 62.8 to 126 µM) | EC50 (E. coli PBP1b): > 100 µM | MIC (E. coli ATCC 25922): 32 to 64 µg/mL | EC50 (E. coli PBP3): 30 to 500 µM | MIC (K. pneumoniae UMM): 32 to 64 µg/mL | MIC (E. coli AG100A): 2 to 4 µg/mL | MIC (E. coli 901C): < 0.25 µg/mL | MIC (E. coli D22): 8 to 16 µg/mL | MIC (K. pneumoniae SI-117): > 128 µg/mL | MIC (K. pneumoniae 848844): > 128 µg/mL

CCN1CCN(C(=O)NC(C(=O)N[C@H]2Cc3cccc(C(=O)[O-])c3OB2O)c2ccc[n+](C)c2)C(=O)C1=O (stereo partly drawn) [Example 106, (3R)-3-(2-(4-ethyl-2,3-dioxopiperazine-1-carboxamido)-2-(1-methylpyridin-1-ium-3-yl)acetamido)-2-hydroxy-3,4-dihydro-2H-benzo[e][1,2]oxaborinine-8-carboxylate]
MIC [1]: 32 to 64 mg/L (≈ 61.1 to 122 µM) | EC50 (E. coli PBP1b): < 10 µM | EC50 (E. coli PBP3; [2]): > 500 µM

CCN1CCN(C(=O)NC(C(=O)N[C@H]2Cc3cccc(C(=O)O)c3OB2O)c2ccc[n+](CC(=O)[O-])c2)C(=O)C1=O (stereo partly drawn) [Example 108, 2-(3-(2-(((R)-8-carboxy-2-hydroxy-3,4-dihydro-2H-benzo[e][1,2]oxaborinin-3-yl)amino)-1-(4-ethyl-2,3-dioxopiperazine-1-carboxamido)-2-oxoethyl)pyridin-1-ium-1-yl)acetate]
MIC (E. coli AG100): > 128 µg/mL | MIC [1]: 32 to 64 mg/L (≈ 56.4 to 113 µM) | EC50 (E. coli PBP1b): 10 to 100 µM | MIC (E. coli ATCC 25922): 32 to 64 µg/mL | EC50 (E. coli PBP3): 30 to 500 µM | MIC (K. pneumoniae UMM): 32 to 64 µg/mL | MIC (E. coli AG100A): 32 to 64 µg/mL | MIC (E. coli 901C): 8 to 16 µg/mL | MIC (E. coli D22): 8 to 16 µg/mL | MIC (K. pneumoniae SI-117): > 128 µg/mL | MIC (K. pneumoniae 848844): > 128 µg/mL

CCN1CCN(C(=O)NC(C(=O)N[C@H]2Cc3cccc(C(=O)O)c3OB2O)c2ncccn2)C(=O)C1=O (stereo partly drawn) [Example 111, (3R)-3-(2-(4-ethyl-2,3-dioxopiperazine-1-carboxamido)-2-(pyrimidin-2-yl)acetamido)-2-hydroxy-3,4-dihydro-2H-benzo[e][1,2]oxaborinine-8-carboxylic acid]
MIC (E. coli AG100): 32 to 64 µg/mL | MIC [1]: 32 to 64 mg/L (≈ 62.7 to 125 µM) | EC50 (E. coli PBP1b): > 100 µM | MIC (E. coli ATCC 25922): 32 to 64 µg/mL | EC50 (E. coli PBP3): 30 to 500 µM | MIC (K. pneumoniae UMM): 32 to 64 µg/mL | MIC (E. coli AG100A): 2 to 4 µg/mL | MIC (E. coli 901C): 0.5 to 1 µg/mL | MIC (E. coli D22): 8 to 16 µg/mL | MIC (K. pneumoniae SI-117): > 128 µg/mL | MIC (K. pneumoniae 848844): > 128 µg/mL

CCN1CCN(C(=O)NC(C(=O)N[C@H]2Cc3cccc(C(=O)O)c3OB2O)C2CCCC2)C(=O)C1=O (stereo partly drawn) [Example 116, (3R)-3-(2-cyclopentyl-2-(4-ethyl-2,3-dioxopiperazine-1-carboxamido)acetamido)-2-hydroxy-3,4-dihydro-2H-benzo[e][1,2]oxaborinine-8-carboxylic acid]
MIC [1]: 128 to 256 mg/L (≈ 256 to 512 µM) | EC50 (E. coli PBP1b): 10 to 100 µM | EC50 (E. coli PBP3; [2]): < 30 µM

CCN1CCN(C(=O)NC(C(=O)N[C@H]2Cc3cccc(C(=O)O)c3OB2O)c2ccc(S(C)(=O)=O)cc2)C(=O)C1=O (stereo partly drawn) [Example 118, (3R)-3-(2-(4-ethyl-2,3-dioxopiperazine-1-carboxamido)-2-(4-(methylsulfonyl)phenyl)acetamido)-2-hydroxy-3,4-dihydro-2H-benzo[e][1,2]oxaborinine-8-carboxylic acid]
MIC [1]: 128 to 256 mg/L (≈ 218 to 437 µM) | EC50 (E. coli PBP1b): > 100 µM | EC50 (E. coli PBP3; [2]): < 30 µM

CS(=O)(=O)c1ccc(C(NC(=O)N2CCN(CCF)C(=O)C2=O)C(=O)N[C@H]2Cc3cccc(C(=O)O)c3OB2O)cc1 (stereo partly drawn) [Example 119, (3R)-3-(2-(4-(2-fluoroethyl)-2,3-dioxopiperazine-1-carboxamido)-2-(4-(methylsulfonyl)phenyl)acetamido)-2-hydroxy-3,4-dihydro-2H-benzo[e][1,2]oxaborinine-8-carboxylic acid]
MIC [1]: 32 to 64 mg/L (≈ 52.9 to 106 µM) | EC50 (E. coli PBP1b): > 100 µM | EC50 (E. coli PBP3): 30 to 500 µM
